From ChEMBL document CHEMBL1201862, “PubChem BioAssay data set” (2004)
Activity calls are given as the source filed them.

Legend:
[1] = molecular target: T1, Probable nicotinate-nucleotide adenylyltransferase (Staphylococcus aureus (strain N315), UniProt P65502); assay type: functional, Staphylococcus aureus subsp. aureus N315;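 for IC50 Mean: confirmatory dose-response retesting of NadD inhibitor hits first found in an ultra-high-throughput screen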
[2] = molecular target: T1, Probable nicotinate-nucleotide adenylyltransferase; assay type: functional, Staphylococcus aureus subsp. aureus N315; conditions: read-out: IC50_Mean
[3] = molecular target: Induced myeloid leukemia cell differentiation protein Mcl-1 (Homo sapiens, UniProt Q07820); assay type: functional
[4] = molecular target: Voltage-dependent T-type calcium channel subunit alpha-1H (Homo sapiens, UniProt O95180); assay type: functional;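 note: channel activity triggered by adding a high calcium stimulation buffer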
[5] = molecular target: T2, Beta-2 adrenergic receptor (Homo sapiens, UniProt P07550); assay: Dose response for HTS for Beta-2AR agonists via FAP method from Powderset3.; assay type: functional
[6] = molecular target: T2, Beta-2 adrenergic receptor; assay: beta2AR agonists driving receptor internalization, dose response, cell-based, FAP fluorogen, flow cytometry, cherry pick 1 (AID 588763); assay type: functional
cells = assay type: functional, cell-based
[7] = molecular target: Nuclear receptor subfamily 0 group B member 1 (Homo sapiens, UniProt P51843); assay type: functional, cell-based;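 note: HEK293T cells transfected with SF-1 and DAX-1 plus StAR promoter luciferase reporter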
[8] = molecular target: T3, Low molecular weight phosphotyrosine protein phosphatase (Homo sapiens, UniProt P24666); assay type: functional; conditions: read-out: IC50_Mean
T3 sequence (P24666 whole entry): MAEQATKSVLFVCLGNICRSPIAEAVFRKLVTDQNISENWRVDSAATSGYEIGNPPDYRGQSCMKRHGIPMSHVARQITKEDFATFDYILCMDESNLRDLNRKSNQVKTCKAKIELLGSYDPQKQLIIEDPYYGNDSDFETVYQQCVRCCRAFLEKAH

[9] = molecular target: T3, Low molecular weight phosphotyrosine protein phosphatase; assay type: functional; conditions: read-out: IC50_Mean; remark: listed apart in the source
[10] = molecular target: T4, Rac GTPase-activating protein 1 (Homo sapiens, UniProt Q9H0H5); assay: MgcRacGAP GTPase-activating activity inhibitors, confirmation, biochemical, ADP Hunter fluorescence, primary and confirmatory (AID 624330); assay type: functional
T4 sequence (Q9H0H5 whole entry): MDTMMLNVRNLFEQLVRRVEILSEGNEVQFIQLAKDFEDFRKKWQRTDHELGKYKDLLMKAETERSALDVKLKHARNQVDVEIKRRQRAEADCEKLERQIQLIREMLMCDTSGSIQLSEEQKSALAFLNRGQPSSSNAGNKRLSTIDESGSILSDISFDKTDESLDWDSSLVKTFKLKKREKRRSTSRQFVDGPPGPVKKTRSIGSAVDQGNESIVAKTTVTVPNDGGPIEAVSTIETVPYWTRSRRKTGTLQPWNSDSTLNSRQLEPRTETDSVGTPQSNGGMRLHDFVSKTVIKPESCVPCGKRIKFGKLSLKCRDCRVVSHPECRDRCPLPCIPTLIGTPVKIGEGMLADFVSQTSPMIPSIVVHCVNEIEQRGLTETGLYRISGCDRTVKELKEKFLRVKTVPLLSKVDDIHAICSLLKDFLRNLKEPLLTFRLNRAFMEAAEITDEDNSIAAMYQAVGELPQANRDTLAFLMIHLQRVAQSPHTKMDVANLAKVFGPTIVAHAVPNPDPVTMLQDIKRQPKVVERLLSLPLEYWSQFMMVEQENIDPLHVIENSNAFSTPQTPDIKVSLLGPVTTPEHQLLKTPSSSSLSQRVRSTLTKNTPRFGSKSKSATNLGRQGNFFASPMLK

[11] = molecular target: T5, Histone-lysine N-methyltransferase NSD2 (Homo sapiens, UniProt O96028); assay type: biochemical
T5 sequence (O96028 whole entry): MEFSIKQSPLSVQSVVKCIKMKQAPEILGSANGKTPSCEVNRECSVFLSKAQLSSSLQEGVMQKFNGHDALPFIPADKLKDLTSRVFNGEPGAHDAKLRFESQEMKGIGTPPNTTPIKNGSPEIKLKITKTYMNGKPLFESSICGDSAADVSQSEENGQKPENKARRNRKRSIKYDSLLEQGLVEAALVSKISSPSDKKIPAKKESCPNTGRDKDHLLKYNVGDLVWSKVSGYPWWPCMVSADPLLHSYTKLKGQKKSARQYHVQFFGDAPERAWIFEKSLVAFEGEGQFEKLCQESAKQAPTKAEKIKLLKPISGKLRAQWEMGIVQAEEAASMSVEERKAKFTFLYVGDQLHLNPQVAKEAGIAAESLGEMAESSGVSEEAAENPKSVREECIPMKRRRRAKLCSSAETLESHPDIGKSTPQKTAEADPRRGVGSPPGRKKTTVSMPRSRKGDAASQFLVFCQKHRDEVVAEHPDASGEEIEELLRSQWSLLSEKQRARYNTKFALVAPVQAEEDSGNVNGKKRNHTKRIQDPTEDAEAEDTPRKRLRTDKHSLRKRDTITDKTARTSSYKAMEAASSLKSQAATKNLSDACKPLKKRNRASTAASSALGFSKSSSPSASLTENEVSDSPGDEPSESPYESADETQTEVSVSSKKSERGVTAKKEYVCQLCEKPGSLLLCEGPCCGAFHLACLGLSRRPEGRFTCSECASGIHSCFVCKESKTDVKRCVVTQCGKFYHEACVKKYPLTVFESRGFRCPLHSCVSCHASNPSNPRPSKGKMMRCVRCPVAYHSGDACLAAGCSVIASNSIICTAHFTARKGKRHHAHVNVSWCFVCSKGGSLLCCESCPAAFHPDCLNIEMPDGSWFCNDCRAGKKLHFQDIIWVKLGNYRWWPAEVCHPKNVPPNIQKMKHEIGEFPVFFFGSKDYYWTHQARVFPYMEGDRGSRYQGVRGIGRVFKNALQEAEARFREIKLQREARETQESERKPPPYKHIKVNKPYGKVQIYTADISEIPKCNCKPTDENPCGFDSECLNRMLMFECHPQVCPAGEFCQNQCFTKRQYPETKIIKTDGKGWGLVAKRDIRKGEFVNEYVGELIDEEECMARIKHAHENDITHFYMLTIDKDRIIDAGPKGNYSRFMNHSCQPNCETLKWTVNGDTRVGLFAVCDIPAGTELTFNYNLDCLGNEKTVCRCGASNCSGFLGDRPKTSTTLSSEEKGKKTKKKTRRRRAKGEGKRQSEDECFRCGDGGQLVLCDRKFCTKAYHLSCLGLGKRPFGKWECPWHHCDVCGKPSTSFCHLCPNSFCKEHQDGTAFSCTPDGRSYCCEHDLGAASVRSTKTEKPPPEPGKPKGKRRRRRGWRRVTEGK

[12] = molecular target: Arf-GAP with SH3 domain, ANK repeat and PH domain-containing protein 1 (Homo sapiens, UniProt Q9ULH1); assay type: functional;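 note: biochemical fluorescence polarization dose–response screen measuring inhibition of ASAP1; ASAP1 GAP domain stimulating GTP hydrolysis by truncated human ARF1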
[13] = HeLa cell cytotoxicity, dose response, cytotoxicity control for MgcRacGAP inhibitor project (AID 624300); assay type: functional
[14] = human group III sPLA2 inhibitors, dose response, biochemical, QFRET, IC50 (AID 743457);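 note: green fluorescence rise as the enzyme cleaves BODIPY PC-A2 in liposomes; potency for inhibition of the enzyme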
Insulin-degrading enzyme [15] = molecular target: T6, Insulin-degrading enzyme (Homo sapiens, UniProt P14735); assay: activators of recombinant IDE enzyme, dose response, counter-screen for IDE activator project, biochemical, fluorescence polarization (AID 588681)
T6 sequence (P14735 whole entry): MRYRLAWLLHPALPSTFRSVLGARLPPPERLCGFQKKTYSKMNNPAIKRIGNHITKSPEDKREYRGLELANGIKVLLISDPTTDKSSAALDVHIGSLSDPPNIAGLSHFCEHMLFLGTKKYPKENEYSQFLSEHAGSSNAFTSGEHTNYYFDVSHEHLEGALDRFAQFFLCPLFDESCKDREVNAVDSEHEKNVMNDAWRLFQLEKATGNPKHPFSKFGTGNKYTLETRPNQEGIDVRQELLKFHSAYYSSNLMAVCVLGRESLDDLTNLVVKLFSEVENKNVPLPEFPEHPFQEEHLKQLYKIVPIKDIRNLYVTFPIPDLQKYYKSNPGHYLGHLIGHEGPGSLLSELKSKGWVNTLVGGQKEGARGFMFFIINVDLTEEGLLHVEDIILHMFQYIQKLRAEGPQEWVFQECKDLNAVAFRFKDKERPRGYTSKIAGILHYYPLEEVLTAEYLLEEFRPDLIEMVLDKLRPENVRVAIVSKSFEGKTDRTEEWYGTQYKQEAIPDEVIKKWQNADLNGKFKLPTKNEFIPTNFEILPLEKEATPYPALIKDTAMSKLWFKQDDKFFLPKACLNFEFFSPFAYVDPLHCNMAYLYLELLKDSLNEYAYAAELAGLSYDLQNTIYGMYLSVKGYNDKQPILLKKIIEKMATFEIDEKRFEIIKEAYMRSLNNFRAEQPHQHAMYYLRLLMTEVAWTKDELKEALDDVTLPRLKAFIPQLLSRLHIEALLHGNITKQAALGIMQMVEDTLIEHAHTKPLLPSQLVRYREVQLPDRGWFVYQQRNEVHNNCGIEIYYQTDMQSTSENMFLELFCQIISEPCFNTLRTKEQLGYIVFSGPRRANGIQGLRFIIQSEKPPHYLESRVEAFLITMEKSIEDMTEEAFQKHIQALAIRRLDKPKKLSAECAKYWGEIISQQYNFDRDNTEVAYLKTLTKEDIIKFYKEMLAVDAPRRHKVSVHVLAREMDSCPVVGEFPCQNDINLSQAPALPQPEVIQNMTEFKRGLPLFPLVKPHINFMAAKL

Beta-lactamase [16] = molecular target: Beta-lactamase (Salmonella choleraesuis (strain SC-B67), UniProt Q5J463)
Beta-lactamase [17] = molecular target: Beta-lactamase (Pseudomonas aeruginosa, UniProt Q79MP6);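 note: biochemical dose-response test of metallo-beta-lactamase enzyme inhibition, read out by epi-absorbance; purified recombinant IMP-1 metallo-beta-lactamase with nitrocefin as substrate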
HEK293 [18] = assay: optical interference in Abeta FP readout, dose response, artefact control for IDE activator project, biochemical, fluorescence polarization (AID 588442); assay type: functional, cell-based; conditions: Homo sapiens
Insulin-degrading enzyme [19] = molecular target: T6, Insulin-degrading enzyme; assay: activators of endogenous IDE in HEK cells, dose response, cell-based, fluorescence polarization (AID 588439); assay type: functional
HEK293 [20] = assay: HEK cell cytotoxicity by LDH release, dose response, cytotoxicity control for IDE activator project, fluorescence, HEK cells (AID 588440); assay type: functional, cell-based; conditions: Homo sapiens;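 note: cytotoxicity by LDH release measuring loss of membrane integrity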
Steroidogenic factor 1 = Steroidogenic factor 1 (Homo sapiens, UniProt Q13285); assay: Counterscreen for inverse agonists of the liver receptor homolog-1 (LRH-1; NR5A2): Luminescence-based cell-based high throughput dose response assay to identify inverse agonists of the Steroidogenic Factor 1 Nuclear Receptor (SF1; NR5A1).; assay type: functional
[21] = StAR promoter reporter inhibition counter-screen, dose response, counter-screen for LRH-1 inverse agonist project, cell-based, luminescence, luciferase reporter (AID 651969); assay type: functional
[22] = molecular target: Nuclear receptor subfamily 5 group A member 2 (Homo sapiens, UniProt O00482); assay type: functional, cell-based;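 note: HEK293T cells transfected with LRH-1 and a StAR promoter luciferase reporter; potency for inhibitors that lower LRH-1 driven reporter light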
Cytochrome P450 3A4 = Cytochrome P450 3A4 (Homo sapiens, UniProt P08684);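 note: CYP3A4 tested as one member of a cytochrome P450 panel screen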
[23] = molecular target: Long-chain-fatty-acid--AMP ligase FadD28 (Mycobacterium tuberculosis, UniProt P9WQ59); assay: Fluorescence polarization aasay to screen for inhibitors that compete for the binding of FadD28 to a bisubstrate Measured in Biochemical System Using Plate Reader - 2147-01_Inhibitor_Dose_CherryPick_Activity.; assay type: functional, Mycobacterium tuberculosis H37Rv
[24] = molecular target: T7, Sentrin-specific protease 1 (Homo sapiens, UniProt Q9P0U3); assay: Dose response confirmation of small molecule inhibitors of the catalytic domain of the SUMO protease, SENP1 in a FRET assay.; assay type: functional; conditions: read-out: IC50_Mean
[25] = molecular target: T8, Polyadenylate-binding protein 1 (Homo sapiens, UniProt P11940); assay: PABP1 MLLE–PAM2 binding inhibitor potency, dose response, biochemical, fluorescence polarization, FITC-PAM2 peptide (AID 602259); assay type: functional; conditions: read-out: IC50_Mean
Genome polyprotein = Genome polyprotein (dengue virus type 2, UniProt P29990); assay: Dengue-2 NS5 methyltransferase inhibitors, primary screen, biochemical, confirmation dose response (AID 588689); assay type: functional
[26] = molecular target: T8, Polyadenylate-binding protein 1; assay: PABP1 MLLE–PAM2 interaction inhibitors, dose response, miRNA deadenylation inhibitor project, biochemical, fluorescence polarization, Cy5-PAM2 peptide, secondary (AID 602260); assay type: functional; conditions: read-out: IC50_Mean
[27] = molecular target: T7, Sentrin-specific protease 1; assay: potency of human SENP1 inhibitors, dose response, biochemical, kinetic FRET (AID 651697); assay type: functional; conditions: read-out: IC50_Mean

T2 sequence (P07550 whole entry): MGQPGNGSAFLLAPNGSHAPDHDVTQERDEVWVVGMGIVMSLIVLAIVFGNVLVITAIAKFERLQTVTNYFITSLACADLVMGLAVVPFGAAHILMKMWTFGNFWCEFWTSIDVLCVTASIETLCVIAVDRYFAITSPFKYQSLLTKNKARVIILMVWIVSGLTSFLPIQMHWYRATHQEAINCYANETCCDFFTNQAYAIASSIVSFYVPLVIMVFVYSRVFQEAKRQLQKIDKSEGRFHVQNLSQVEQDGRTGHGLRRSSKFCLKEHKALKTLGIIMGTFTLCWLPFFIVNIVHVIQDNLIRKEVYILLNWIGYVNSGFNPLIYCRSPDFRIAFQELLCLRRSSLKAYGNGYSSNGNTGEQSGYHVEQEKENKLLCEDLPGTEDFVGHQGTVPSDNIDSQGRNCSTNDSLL
T1 sequence (P65502 whole entry): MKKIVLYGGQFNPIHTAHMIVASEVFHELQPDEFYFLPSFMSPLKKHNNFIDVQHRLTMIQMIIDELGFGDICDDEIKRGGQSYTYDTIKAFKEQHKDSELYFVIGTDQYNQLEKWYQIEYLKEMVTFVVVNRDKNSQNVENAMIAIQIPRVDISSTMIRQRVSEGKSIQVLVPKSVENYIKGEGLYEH
T8 sequence (P11940 whole entry): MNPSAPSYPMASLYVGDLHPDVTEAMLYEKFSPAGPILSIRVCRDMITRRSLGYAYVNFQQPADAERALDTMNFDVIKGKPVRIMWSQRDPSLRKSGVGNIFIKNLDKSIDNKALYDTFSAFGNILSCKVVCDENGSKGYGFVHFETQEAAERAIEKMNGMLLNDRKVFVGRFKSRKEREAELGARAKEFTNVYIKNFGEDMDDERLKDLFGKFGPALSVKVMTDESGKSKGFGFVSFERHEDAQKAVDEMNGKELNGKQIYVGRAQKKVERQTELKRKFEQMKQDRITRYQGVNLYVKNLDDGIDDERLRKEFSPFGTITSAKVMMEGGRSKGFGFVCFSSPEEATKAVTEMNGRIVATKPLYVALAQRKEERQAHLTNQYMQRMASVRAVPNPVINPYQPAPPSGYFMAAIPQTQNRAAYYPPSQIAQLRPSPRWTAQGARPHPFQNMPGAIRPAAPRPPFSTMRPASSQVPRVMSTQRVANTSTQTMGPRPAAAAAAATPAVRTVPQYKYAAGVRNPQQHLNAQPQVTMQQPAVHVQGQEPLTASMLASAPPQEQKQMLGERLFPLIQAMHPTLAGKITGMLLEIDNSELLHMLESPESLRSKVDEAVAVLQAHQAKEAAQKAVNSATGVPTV
T7 sequence (Q9P0U3 whole entry, the tested form may be a part): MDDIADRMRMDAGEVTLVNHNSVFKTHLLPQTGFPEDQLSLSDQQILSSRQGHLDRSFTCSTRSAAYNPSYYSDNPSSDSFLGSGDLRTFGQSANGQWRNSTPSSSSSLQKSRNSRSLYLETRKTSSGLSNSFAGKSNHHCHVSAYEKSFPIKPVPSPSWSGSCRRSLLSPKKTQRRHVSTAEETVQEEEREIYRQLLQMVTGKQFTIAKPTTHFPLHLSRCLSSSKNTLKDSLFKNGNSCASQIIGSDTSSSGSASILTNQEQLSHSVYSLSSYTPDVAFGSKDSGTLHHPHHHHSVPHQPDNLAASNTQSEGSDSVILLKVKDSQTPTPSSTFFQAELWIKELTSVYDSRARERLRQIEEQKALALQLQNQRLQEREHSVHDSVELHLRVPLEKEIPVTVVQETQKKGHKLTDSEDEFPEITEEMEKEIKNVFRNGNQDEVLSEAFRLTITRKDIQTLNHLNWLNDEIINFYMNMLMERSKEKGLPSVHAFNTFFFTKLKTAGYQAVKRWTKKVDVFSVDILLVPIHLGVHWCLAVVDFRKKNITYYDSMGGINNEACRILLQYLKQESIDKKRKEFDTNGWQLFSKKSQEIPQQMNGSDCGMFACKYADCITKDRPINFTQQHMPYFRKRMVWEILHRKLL
Chain of Genome polyprotein (P29990 2492-3391 limits assumed): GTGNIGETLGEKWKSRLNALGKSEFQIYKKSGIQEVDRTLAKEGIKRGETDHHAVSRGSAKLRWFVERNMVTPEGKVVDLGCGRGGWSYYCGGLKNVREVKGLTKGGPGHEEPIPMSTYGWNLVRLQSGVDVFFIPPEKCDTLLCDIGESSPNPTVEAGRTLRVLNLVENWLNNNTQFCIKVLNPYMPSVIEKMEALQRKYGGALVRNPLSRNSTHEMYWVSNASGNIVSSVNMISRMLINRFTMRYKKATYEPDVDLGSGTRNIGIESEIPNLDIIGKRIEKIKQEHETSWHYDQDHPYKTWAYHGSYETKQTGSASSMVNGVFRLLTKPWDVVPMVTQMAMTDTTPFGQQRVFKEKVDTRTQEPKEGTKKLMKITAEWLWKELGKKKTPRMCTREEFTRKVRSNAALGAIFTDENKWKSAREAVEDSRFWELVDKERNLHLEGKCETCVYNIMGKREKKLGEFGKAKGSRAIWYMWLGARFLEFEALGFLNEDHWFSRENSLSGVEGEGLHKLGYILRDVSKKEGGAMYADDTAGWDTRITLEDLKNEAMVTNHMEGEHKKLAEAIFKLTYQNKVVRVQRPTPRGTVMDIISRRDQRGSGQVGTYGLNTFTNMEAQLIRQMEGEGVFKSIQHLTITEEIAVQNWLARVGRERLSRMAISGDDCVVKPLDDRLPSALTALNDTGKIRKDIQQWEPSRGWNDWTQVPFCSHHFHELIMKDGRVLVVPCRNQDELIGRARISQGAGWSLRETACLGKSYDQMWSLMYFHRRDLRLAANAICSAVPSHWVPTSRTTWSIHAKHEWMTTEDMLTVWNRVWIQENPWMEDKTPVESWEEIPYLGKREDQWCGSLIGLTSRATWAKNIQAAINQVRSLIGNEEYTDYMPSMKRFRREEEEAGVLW
Chain of Steroidogenic factor 1 (Q13285 whole entry): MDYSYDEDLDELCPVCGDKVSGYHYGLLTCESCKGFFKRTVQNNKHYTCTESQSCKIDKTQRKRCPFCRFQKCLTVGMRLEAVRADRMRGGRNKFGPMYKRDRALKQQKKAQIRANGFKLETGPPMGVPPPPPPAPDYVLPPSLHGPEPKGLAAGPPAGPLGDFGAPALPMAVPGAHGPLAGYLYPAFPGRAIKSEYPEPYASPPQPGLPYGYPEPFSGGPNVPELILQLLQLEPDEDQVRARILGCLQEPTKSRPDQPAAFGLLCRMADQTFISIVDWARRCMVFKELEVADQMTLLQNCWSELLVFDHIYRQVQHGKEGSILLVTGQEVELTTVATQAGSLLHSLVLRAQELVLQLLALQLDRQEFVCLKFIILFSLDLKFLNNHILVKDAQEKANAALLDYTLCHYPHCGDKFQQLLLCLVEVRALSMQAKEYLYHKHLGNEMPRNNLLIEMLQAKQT
Chain of Induced myeloid leukemia cell differentiation protein Mcl-1 (Q07820 whole entry): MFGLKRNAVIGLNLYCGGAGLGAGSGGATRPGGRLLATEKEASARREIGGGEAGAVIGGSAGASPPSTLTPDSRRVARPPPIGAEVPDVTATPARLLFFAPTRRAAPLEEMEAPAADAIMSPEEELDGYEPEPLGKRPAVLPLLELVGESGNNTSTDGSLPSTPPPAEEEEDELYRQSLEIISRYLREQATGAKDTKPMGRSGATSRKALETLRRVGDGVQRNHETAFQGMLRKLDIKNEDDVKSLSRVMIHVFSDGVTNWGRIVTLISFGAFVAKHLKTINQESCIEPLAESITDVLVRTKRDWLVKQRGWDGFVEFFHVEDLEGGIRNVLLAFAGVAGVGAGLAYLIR
Chain of Cytochrome P450 3A4 (P08684 whole entry): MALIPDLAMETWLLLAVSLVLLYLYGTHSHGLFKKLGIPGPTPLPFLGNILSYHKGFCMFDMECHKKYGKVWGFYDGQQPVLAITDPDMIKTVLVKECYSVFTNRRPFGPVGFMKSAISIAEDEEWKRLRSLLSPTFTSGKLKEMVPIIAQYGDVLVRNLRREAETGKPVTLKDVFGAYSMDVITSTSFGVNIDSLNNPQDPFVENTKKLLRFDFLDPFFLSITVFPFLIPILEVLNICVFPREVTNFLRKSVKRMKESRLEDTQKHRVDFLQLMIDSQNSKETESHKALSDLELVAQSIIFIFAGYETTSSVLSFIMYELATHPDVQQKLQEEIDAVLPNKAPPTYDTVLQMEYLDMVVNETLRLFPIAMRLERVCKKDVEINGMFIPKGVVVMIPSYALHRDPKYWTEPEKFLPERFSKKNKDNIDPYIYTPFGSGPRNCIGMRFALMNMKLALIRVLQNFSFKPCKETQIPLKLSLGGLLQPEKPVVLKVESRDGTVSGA
Chain of Nuclear receptor subfamily 0 group B member 1 (P51843 whole entry): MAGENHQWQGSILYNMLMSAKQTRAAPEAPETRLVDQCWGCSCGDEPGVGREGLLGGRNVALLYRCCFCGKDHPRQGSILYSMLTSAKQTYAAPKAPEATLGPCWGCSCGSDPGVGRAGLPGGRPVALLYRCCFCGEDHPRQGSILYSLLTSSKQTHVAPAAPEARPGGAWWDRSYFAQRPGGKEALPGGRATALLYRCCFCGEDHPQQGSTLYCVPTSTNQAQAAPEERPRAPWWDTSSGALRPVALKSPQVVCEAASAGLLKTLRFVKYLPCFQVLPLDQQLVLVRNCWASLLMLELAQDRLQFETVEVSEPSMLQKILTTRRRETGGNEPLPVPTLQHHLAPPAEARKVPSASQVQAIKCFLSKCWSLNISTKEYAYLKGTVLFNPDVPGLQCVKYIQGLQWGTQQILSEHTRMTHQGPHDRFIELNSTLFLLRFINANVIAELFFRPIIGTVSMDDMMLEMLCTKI
Chain of Beta-lactamase (Pseudomonas aeruginosa, UniProt Q79MP6) (Q79MP6 whole entry): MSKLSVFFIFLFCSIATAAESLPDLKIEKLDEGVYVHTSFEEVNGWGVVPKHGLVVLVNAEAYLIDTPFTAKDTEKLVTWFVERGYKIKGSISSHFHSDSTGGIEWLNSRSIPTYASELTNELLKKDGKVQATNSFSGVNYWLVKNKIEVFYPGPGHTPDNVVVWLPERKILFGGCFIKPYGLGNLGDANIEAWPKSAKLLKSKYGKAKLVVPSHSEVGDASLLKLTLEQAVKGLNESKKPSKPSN

SMILES: O=C(Nc1ccc(S(=O)(=O)Nc2nccs2)cc1)/C(=C/c1ccccc1Cl)NC(=O)c1ccccc1
- IC50 [1]: 6.5 µM (active)
- IC50 [2]: 22.8 µM (active)
- IC50 [3]: 2.73 µM (active)

SMILES: CN(Cc1ccccc1)S(=O)(=O)c1ccc(NS(=O)(=O)Cc2ccccc2)cc1
- EC50 [4]: 3.46 µM (active)
- EC50 [5]: 0.0609 µM (active)
- EC50 [6]: 1.25 µM (active)

SMILES: O=C1c2ccccc2C(=O)N1CCOc1ccccc1Br
- IC50 (cells): > 67.5 µM (inactive)
- IC50 [7]: > 67.5 µM (inactive)

SMILES: Nc1ncc2c(n1)CC(c1ccco1)CC2=O (stereo unspecified)
- IC50 [8]: 56.8 µM (inactive)
- IC50 [9]: 40.5 µM (inactive)

SMILES: CN(C)c1ccc(/C=C/c2cc[n+](C)c3ccccc23)cc1.[O-][Cl+3]([O-])([O-])[O-]
- IC50 [10]: 36.1 µM (active)
- AC50 [11]: 11.7 µM (active)
- IC50 [12]: 21.4 µM (inactive)
- CC50 [13]: 41.1 µM (active)
- IC50 [14]: 28.6 µM (inactive)

SMILES: N#CC(C#N)=C1C=C2C=C(N3CCOCC3)CCC2CC1 (stereo unspecified)
- EC50 (Insulin-degrading enzyme [15]): > 54.7 µM (inactive)
- IC50 (Beta-lactamase [16]): 1.49 µM (active)
- IC50 (Beta-lactamase [17]): 6.86 µM (active)
- EC50 (HEK293 [18]): > 54.7 µM (inactive)
- EC50 (Insulin-degrading enzyme [19]): > 54.7 µM (inactive)
- IC50 (HEK293 [20]): > 89.1 µM (inactive)

SMILES: NC(=O)C1CCN(C(=O)COc2ccc3c4c(c(=O)oc3c2)CCC4)CC1
- IC50 (Steroidogenic factor 1): 35.9 µM (inactive)
- IC50 [21]: 35.9 µM (inactive)
- IC50 [22]: 35.9 µM (inactive)

SMILES: Cc1cccc(NC(=O)Cn2c(=O)oc3ccccc32)c1
- AC50 (Cytochrome P450 3A4): 25.1 µM (inconclusive)
- AC50 [23]: 5.47 µM (active)

SMILES: Nc1nc(O)cc(N=Nc2ccc(O)cc2)n1
- IC50 [24]: 15.4 µM (active)
- IC50 [25]: 43.8 µM (inactive)
- IC50 (Genome polyprotein): 26.7 µM (active)
- IC50 [26]: > 66 µM (inactive)
- IC50 [27]: 11.6 µM (active)
